Results published in PubChem BioAssay (NCI).
Where “and” joins values, the source holds several entries; their conditions need not be identical. Equal entries are not always repeated.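 Values below derive from 48-hour exposures of cells grown in 96-well plates, with endpoints linearly interpolated between the two concentrations bracketing the appropriate inhibition level. The concentration for 50% growth inhibition is given as GI50. At the TGI there is no net growth.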

How the values were obtained:
Assay in all cases: growth of human tumour cells (NCI), 48 h
OVCAR-4 ovarian = test system: OVCAR-4 ovarian
OVCAR-3 ovarian = test system: OVCAR-3 ovarian
CCRF-CEM leukemia = test system: CCRF-CEM leukemia
HOP-62 NSCLC = test system: HOP-62 NSCLC
A549 NSCLC = test system: A549 NSCLC
SF-295 CNS = test system: SF-295 CNS
SK-MEL-28 melanoma = test system: SK-MEL-28 melanoma
SNB-19 CNS = test system: SNB-19 CNS
MDA-MB-435 = test system: MDA-MB-435
K-562 leukemia = test system: K-562 leukemia

Compound | GI50 (OVCAR-4 ovarian) [µM] | TGI (OVCAR-4 ovarian) [µM] | GI50 (OVCAR-3 ovarian) [µM] | TGI (OVCAR-3 ovarian) | GI50 (CCRF-CEM leukemia) [µM] | TGI (CCRF-CEM leukemia) [µM] | GI50 (HOP-62 NSCLC) [µM] | TGI (HOP-62 NSCLC) [µM] | GI50 (A549 NSCLC) [µM] | TGI (A549 NSCLC) [µM] | GI50 (SF-295 CNS) [µM] | TGI (SF-295 CNS) | GI50 (SK-MEL-28 melanoma) [µM] | TGI (SK-MEL-28 melanoma) [µM] | GI50 (SNB-19 CNS) [µM] | TGI (SNB-19 CNS) [µM] | GI50 (MDA-MB-435) [µM] | TGI (MDA-MB-435) [µM] | GI50 (K-562 leukemia) [µM] | TGI (K-562 leukemia) [µM]
N#CC1=C(N)Oc2cc(O)ccc2C1c1cccc2ccccc12 (stereo not given) | 13.1 | 31.5 | 4.07 | 16.6 µM | 7 | 36.9 | 13.5 | 31.7 | 7.02 | > 100 | 7.28 | 25.6 µM | 12.7 | 27.9 | 16.3 | 37.3 | 2.51 | 6.68 | 3.68 | 17
O=C(Nc1ccc(-n2ccc3c(NC(=O)c4ccccc4)nccc32)cc1)Nc1ccc(Cl)c(Cl)c1 | 1.55 | 3.86 | 1.34 | 2.75 µM | 0.252 | 1.93 | 1.31 | 2.75 | 1.01 | 2.57 | 0.877 | 3.18 µM | 1.49 | 3.07 | 1.13 | 4.4 | 1.31 | 2.81 | 0.736 | > 100
COc1ccc(O)c(C(=O)c2ccc(C(=O)N[C@H]3CCCNC[C@@H]3NC(=O)c3ccncc3)cc2)c1F | > 12.3 | > 25 | 4.3 | > 23 µM | 0.721 | 6.42 | 4.39 | > 21.1 | 16.3 | > 25 | 1.9 | > 18.9 µM | > 18.4 | > 25 | 10.4 | > 25 | > 14.9 | > 25 | 7.78 | > 25
CC(C)(S)C(N)C(=O)O (stereo not given) | > 5000 | > 5000 | 1250 | 3990 µM and > 100 µM | 612 | > 5000 | > 5000 | > 5000 | 1780 | > 5000 | 963 | 3660 µM and > 100 µM | > 5000 | > 5000 | 3370 | > 5000 | 1890 | > 5000 | 2390 | > 5000
CCn1c(=O)c2c(=O)c3c4c(oc3oc2c2ccccc21)C(=O)c1ccccc1C4=O | 0.376 | 1.5 | 0.627 | 4.51 µM | 1.18 | > 100 | > 21.6 | > 100 | > 100 | > 100 | > 24.2 | > 100 µM | > 100 | > 100 | > 57.7 | > 100 | > 100 | > 100 | 1.73 | > 100
CCCOc1ccc2sc(NC(=O)OC)nc2c1 | > 100 | > 100 | 2.27 | 19.9 µM | 2.07 | > 28.4 | 4.9 | > 100 | 4.2 | > 100 | 2.69 | > 100 µM | 18.6 | > 100 | 10.2 | > 100 | 0.215 | 0.587 | 0.419 | > 100
CN(CCO)c1ccc(N2Cc3ccccc3OC3=C2C(=O)c2c(O)ccc(O)c2C3=O)cn1 | 0.173 | 0.343 | 0.111 | 0.276 µM | 0.0566 | 0.548 | 0.508 | 1.79 | 2.08 | 4.9 | 1.41 | 3.52 µM | 0.246 | 0.611 | 0.465 | 1.67 | 0.215 | 0.478 | 0.0759 | > 100
O=C(CSC1CCc2ccccc21)N/N=C/c1ccccc1O (stereo not given) | 1.55 | 92.5 | 4.67 | 48.9 µM | 1.64 | 45.4 | 10.8 | > 100 | 4.81 | > 100 | 6.84 | > 100 µM | 4.72 | > 100 | 6.11 | > 100 | 5.87 | > 100 | 4.59 | > 100
CCN(Cc1ccccc1C)c1ccc(CO)c(Cl)c1 | 1.26 | 11.8 | 2.13 | 9.79 µM | 15.5 | 38.2 | 6.39 | 23.7 | 6.63 | 27.9 | 4.15 | 16.9 µM | 13.2 | 27.8 | 17.8 | 52.8 | 3.67 | 15.4 | 3.1 | 13.8
